In one assay the test system is Human rhinovirus sp. Put plainly: Antiviral activity against human rhinovirus-14 in HeLa cells. It is filed as functional, organism-based.
The subject of the next assay is HeLa. The assay can be described thus: Cytotoxic activity against HeLa cells using XTT assay. It is filed as functional. As to conditions: Homo sapiens, read-out: TC50 (the source's name).

Where a SMILES comes first, the peptide text is derived from it. [ ]: non-standard residue; d: D form. The star is where a group is joined. Met(O2) = CS(=O)(=O)CC[C@H](N)C(=O)O; hPhe = N[C@@H](CCc1ccccc1)C(=O)O; Cbz = O=C(OCc1ccccc1)*; Boc = CC(C)(C)OC(=O)* Some results are limits rather than exact numbers.

Consider `CC(=O)N[C@@H](CC(C)C)C(=O)N[C@@H](CC(C)C)C(=O)N[C@H](C=O)CCCNC(=N)N` [LEUPEPTIN], for which the IC50 in the assay with Human rhinovirus sp. was above 224 µM. Moreover, the CC50 in the assay with HeLa is above 224 µM.
For `CSCC[C@@H](C=O)NC(=O)[C@H](CC(C)C)NC(=O)OCc1ccccc1` (Cbz-Leu-Met-aldehyde), 46.8 µM corresponded to half-maximal inhibition in the assay on Human rhinovirus sp. (IC50). Also, the CC50 in the assay on HeLa came to 83 µM.
The like results for `CS(=O)(=O)CC[C@@H](C=O)NC(=O)[C@H](CCc1ccccc1)NC(=O)OCc1ccccc1` (Cbz-[hPhe]-[Met(O2)]-aldehyde) were, in that order, 81.2 µM and 162 µM.
In turn, `CS(=O)(=O)CC[C@@H](C=O)NC(=O)C(Cc1ccccc1)NC(=O)OCc1ccccc1` (single isomer, unassigned) yielded an IC50 with Human rhinovirus sp. above 224 µM. Also, the CC50 with HeLa was above 224 µM.
`CC(C)(C)OC(=O)N[C@@H](Cc1ccccc1)C(=O)N[C@H](C=O)CCS(C)(=O)=O` (Boc-Phe-[Met(O2)]-aldehyde): half-maximal inhibition in the assay on Human rhinovirus sp. (IC50) was put at 71.3 µM. Further, the CC50 with HeLa stood at 148 µM.
For `CC(=O)N[C@@H](CC(C)C)C(=O)N[C@@H](CC(C)C)C(=O)N[C@H](C=O)CCS(C)(=O)=O` (Ac-Leu-Leu-[Met(O2)]-aldehyde) the same measures were 81.9 µM and above 224 µM.
For `CSCC[C@@H](C=O)NC(=O)[C@H](Cc1ccccc1)NC(=O)OCc1ccccc1` (Cbz-Phe-Met-aldehyde) the same measures were 9.7 µM and 42.2 µM.
For `CCCC[C@@H](C=O)NC(=O)[C@H](CC(C)C)NC(=O)OCc1ccccc1` [CALPEPTIN] the same measures were 17.7 µM and 22.1 µM.
In turn, `CSCC[C@@H](C=O)NC(=O)[C@H](CC(C)C)NC(=O)[C@H](CC(C)C)NC(C)=O` (Ac-Leu-Leu-Met-aldehyde) came in with an IC50 in the assay with Human rhinovirus sp. of 23.7 µM. Moreover, the CC50 in the assay on HeLa came to 37.1 µM.
The like results for `CC(C)C[C@H](NC(=O)[C@@H](NC(=O)OC(C)(C)C)C(C)C)C(=O)N[C@@H](Cc1ccccc1)C(=O)N[C@H](C=O)CCC(N)=O` (Boc-VLFQ-aldehyde) were, in that order, 400 µM and 0.6 µM.
For `CC(C)C[C@H](NC(=O)OCc1ccccc1)C(=O)N[C@H](C=O)CCS(C)(=O)=O` (Cbz-Leu-[Met(O2)]-aldehyde) the same measures were 39.3 µM and above 224 µM.
For `CSCC[C@@H](C=O)NC(=O)[C@H](CCc1ccccc1)NC(=O)OCc1ccccc1` (Cbz-[hPhe]-Met-aldehyde) the same measures were 20.3 µM and 13.5 µM.
With `CS(=O)(=O)CC[C@@H](C=O)NC(=O)[C@H](Cc1ccccc1)NC(=O)OCc1ccccc1`, in the assay with Human rhinovirus sp., the IC50 stood at 3.4 µM. Moreover, the CC50 with HeLa is above 224 µM.
For `CSCC[C@@H](C=O)NC(=O)[C@H](Cc1ccccc1)NC(=O)OC(C)(C)C` (Boc-Phe-Met-aldehyde) the same measures were 84.1 µM and 65.4 µM.
For `NC(=O)CC[C@@H](C=O)NC(=O)[C@H](Cc1ccccc1)NC(=O)OCc1ccccc1` the same measures were 42 µM and above 224 µM.

For the origin of these results see ChEMBL document CHEMBL1128943, “Small peptidic aldehyde inhibitors of human rhinovirus 3C protease” (Bioorg Med Chem Lett, 1996).
